Measured values: patent publication US4642341A, “Carbapenem antibiotics” (priority 1985, dated 1987)
Values after ≈ are worked out from the molar mass of the structure shown. Like-named read-outs stand apart in the source and are kept apart here.

Legend:
[1] = system: various Pseudomonas species; conditions: cited from earlier work
S. pneumoniae A-9585 = experiment: Minimum Inhibitory Concentration, tube dilution; assay type: cell-based; conditions: Streptococcus pneumoniae, A9585, overnight 37° C.
S. pyogenes A-9604 = experiment: Minimum Inhibitory Concentration, tube dilution; assay type: cell-based; conditions: Streptococcus pyogenes, A9604, overnight 37° C.
S. aureus A-9537 = experiment: Minimum Inhibitory Concentration, tube dilution; assay type: cell-based; conditions: Staphylococcus aureus, read-out: MIC
[2] = system: S. aureus A-9606 (Pen-res.); experiment: Minimum Inhibitory Concentration, tube dilution; assay type: cell-based; conditions: Staphylococcus aureus
S. faecalis A20688 = experiment: Minimum Inhibitory Concentration, tube dilution; assay type: cell-based; conditions: Enterococcus faecalis
E. coli A15119 = experiment: Minimum Inhibitory Concentration, tube dilution; assay type: cell-based; conditions: Escherichia coli, A15119, 10^-4 dil.
E. coli A20341-1 = experiment: Minimum Inhibitory Concentration, tube dilution; assay type: cell-based; conditions: Escherichia coli, A203411, 10^-4
P. vulgaris A21559 = experiment: Minimum Inhibitory Concentration, tube dilution; assay type: cell-based; conditions: Proteus vulgaris, A21559, overnight 37° C.
P. rettgeri A22424 = experiment: Minimum Inhibitory Concentration, tube dilution; assay type: cell-based; conditions: Providencia rettgeri, overnight 37° C., read-out: MIC
P. aeruginosa A-9843A [3] = experiment: Minimum Inhibitory Concentration, tube dilution; assay type: cell-based; conditions: Pseudomonas aeruginosa, A9843A
H. influenzae A-9833 = experiment: Minimum Inhibitory Concentration, tube dilution; assay type: cell-based; conditions: Haemophilus influenzae, A9833
H. influenzae A20178 = experiment: Minimum Inhibitory Concentration, tube dilution; assay type: cell-based; conditions: Haemophilus influenzae, overnight 37° C.
H. influenzae A21518 = experiment: Minimum Inhibitory Concentration, tube dilution; assay type: cell-based; conditions: Haemophilus influenzae, overnight 37° C.
H. influenzae A21522 = experiment: Minimum Inhibitory Concentration, tube dilution; assay type: cell-based; conditions: Haemophilus influenzae, overnight 37° C.
B. fragilis A22696 = experiment: Minimum Inhibitory Concentration, tube dilution; assay type: cell-based; conditions: Bacteroides fragilis, overnight 37° C., read-out: MIC
S. aureus A-9606 = experiment: Protective effect, intramuscular treatment of infected mice; assay type: in vivo; conditions: Staphylococcus aureus, A9606, im; i.m.; challenge 1 × 10^9; read-out: PD50 /Treatment
Description: (§1) The PD50 (dose in mg/kg required to give protection to 50% of the infected mice) is indicated.
(§2) Treatment Schedule: Mice were treated i.m. with drugs 0 and 2 hours
(§3) 3.5 hours (all others); 5 mice were used for each test.

K. pneumoniae A-9664 [4] = experiment: as above; assay type: in vivo; conditions: Klebsiella pneumoniae, A9664, im; i.m.; challenge 7 × 10^6; read-out: PD50 /Treatment
Description: as §1, §2, §3

P. rettgeri A15167-2 = experiment: as above; assay type: in vivo; conditions: Providencia rettgeri, A151672, im; i.m.; challenge 3 × 10^7; read-out: PD50 /Treatment
Description: as §1, §2, §3

M. morganii A15149 = experiment: as above; assay type: in vivo; conditions: Morganella morganii, A15149, im; i.m.; challenge 7 × 10^5; read-out: PD50 /Treatment
Description: as §1, §2, §3

S. marcescens A20335 = experiment: as above; assay type: in vivo; conditions: Serratia marcescens, A20335, im; i.m.; challenge 9 × 10^6; read-out: PD50 /Treatment
Description: as §1, §2, §3

P. aeruginosa A-9843a [5] = experiment: as above; assay type: in vivo; conditions: Pseudomonas aeruginosa, A9843A, im; challenge 3 × 10^4; Historical data; read-out: PD50 /Treatment
Description: as §1, §2, §3

P. aeruginosa A20481 = experiment: as above; assay type: in vivo; conditions: Pseudomonas aeruginosa, A20481, im; i.m.; challenge 3 × 10^4; read-out: PD50 /Treatment
Description: as §1, §2, §3

P. aeruginosa A20599 = experiment: as above; assay type: in vivo; conditions: Pseudomonas aeruginosa, A20599, im; i.m.; challenge 9 × 10^4; read-out: PD50 /Treatment
Description: as §1, §2, §3

[6] = Blood levels in mice after intramuscular administration; assay type: in vivo; conditions: mouse, im, 20 mg/kg i.m.
Description: a single test; 4 mice used per compound.

[7] = Urinary recovery in mice after intramuscular administration; assay type: in vivo; conditions: mouse, urine, im, 20 mg/kg, 20 mg/kg i.m., read-out: Percentage of Dose Recovered (urine)
Description: | a single test; 4 mice per compound.

[8] = Half-life in phosphate buffer pH 7.4; assay type: physicochemical; conditions: phosphate buffer
Description: To a solution of p-nitrobenzyl 3-[2-(1-pyridinium)ethylthio)]-6α[1-(R)-hydroxyethyl]-7-oxo-1-azabicyclo(3.2.0)hept-2-ene-carboxylate diphenylphosphate (0.16 g, 0.22 mmol) in wet tetrahydrofuran (10mL) was added ether (10mL), potassium phosphate monobasic-sodium hydroxide buffer pH 7.4 (16 mL, 0.05 M) and 10% palladium on charcoal (0.16 g). The resulting mixture was hydrogenated under 40 psi for 1 h at 25° C. The two phases were separated and the organic phase was extracted with water (2×3 mL). The aqeuous solutions were combined, washed with ether (2×10 ml) and poured on top of a column (1.5×6.2 cm) pf μ-bondapak C-18 after the traces of organic solvents have been removed under vacuum. Elution of the column with water gave after lyophylization of the appropriate fractions a yellowish powder 0.062 g (84%), ir (KBr) .nu.max : 3700-3000 (OH), 1755 (C--O of β-lactam), 1630 (pyridinium), 1590 cm^-1 (carboxylate), ^1 Hmr (D2 O): 1.22 (3H, d, J=6.4 Hz, CH3 CHOH), 2.92 (d, J=9.1 Hz, H-4), 2.97 (d, J=9.1 Hz, H-4), 3.20 (dd, J=2.5 Hz, J=6.1 Hz, H-6), 3.44 (t, J=6.0 Hz, CH2 S), 3.93 (dd, J=9.1 Hz, J=2.5 Hz, H-5), 4.82 (t, J=6.0 Hz, CH2 N^+), 8.04 (m, Hm of pyridinium), 8.5 (m, Hp of pyridinium), 8.82 (dd, J=3.2. Hz, J=1.1 Hz, Ho of pyridinium), uv (H2 O) λ max : 259 (ε5800), 296 (ε7030) mμ, .tau.1/2 =13.5 h (measured at a concentration of 10^-4 M in phosphate buffer pH 7.4 at 36.8° C.).

in vivo = conditions: mouse
E. cloacae A-9569 = experiment: animal or person; conditions: Enterobacter cloacae, A9569, in Mus musculus, im, read-out: PD50 /Treatment
Description: as §1, §2, §3

P. mirabilis A-9900 [9] = experiment: animal or person; conditions: Proteus mirabilis, A9900, in Mus musculus, im, read-out: PD50 /Treatment, i.m.; challenge 4 × 10^6
Description: as §1, §2, §3

[10] = Toxicity after intracranial administration to mice; conditions: mouse, in vivo
[11] = system: S. aureus A15097 (Meth-res.); experiment: Minimum Inhibitory Concentration, tube dilution; assay type: cell-based; conditions: Staphylococcus aureus, table 6
K. pneumoniae A-9664 [12] = experiment: Minimum Inhibitory Concentration, tube dilution; assay type: cell-based; conditions: Klebsiella pneumoniae, A9664, overnight 37° C.; table 6
P. mirabilis A-9900 [13] = experiment: Minimum Inhibitory Concentration, tube dilution; assay type: cell-based; conditions: Proteus mirabilis, A9900, overnight 37° C.; table 6
S. marcescens A20019 = experiment: Minimum Inhibitory Concentration, tube dilution; assay type: cell-based; conditions: Serratia marcescens, A20019, overnight 37° C.; table 6
P. aeruginosa A21213 = experiment: Minimum Inhibitory Concentration, tube dilution; assay type: cell-based; conditions: Pseudomonas aeruginosa, A21213, overnight 37° C.; table 6; read-out: MIC
M. morganii A15153 = experiment: Minimum Inhibitory Concentration, tube dilution; assay type: cell-based; conditions: Morganella morganii, A15153, overnight 37° C.; table 6
P. mirabilis A9900 = experiment: Protective effect, intramuscular treatment of infected mice (table 8); assay type: in vivo; conditions: Proteus mirabilis, A9900, im; i.m. 0 and 2 h post-infection; 4×10^7 organisms i.p.; read-out: PD50 /treatment
Description: as §1

P. aeruginosa A9843A = experiment: animal or person; assay type: in vivo, mice; conditions: Pseudomonas aeruginosa, in Mus musculus, im, read-out: PD50 /treatment
Description: as §1

Question: For `C[C@@H](O)[C@H]1C(=O)N2C(C(=O)O)=C(SCCN)C[C@H]12` [Thienamycin, thienamycin], which “activity against various Pseudomonas species” value [1] is on record?
Answer: notable activity

Question: Which results are given for `C[C@@H](O)[C@H]1C(=O)N2C(C(=O)[O-])=C(SCC[n+]3ccccc3)C[C@H]12` [Example 1, 3-[2-(1-Pyridinium)ethylthio]-6α-[1-(R)-hydroxyethyl]-7-oxo-1-azabicyclo (3.2.0)-hept-2-ene-2-carboxylate]?
Answer: MIC (S. pneumoniae A-9585): 2 ng/mL (≈ 0.00598 µM); MIC (S. pyogenes A-9604): 8 ng/mL (≈ 0.0239 µM); MIC (S. aureus A-9537; A9537, + 50% serum): 0.03 µg/mL; MIC (S. aureus A-9537; A9537, overnight 37° C.): 0.008 µg/mL (≈ 0.0239 µM); MIC ([2]; Pen-res.): 0.016 µg/mL (≈ 0.0478 µM); MIC (S. faecalis A20688; A20688): 0.5 µg/mL (≈ 1.5 µM); MIC (E. coli A15119): 0.03 µg/mL (≈ 0.0897 µM); MIC (E. coli A20341-1): 0.03 µg/mL (≈ 0.0897 µM); MIC (P. vulgaris A21559): 0.03 µg/mL (≈ 0.0897 µM); MIC (P. rettgeri A22424): 0.5 µg/mL (≈ 1.5 µM); MIC (P. aeruginosa A-9843A [3]): 2 µg/mL (≈ 5.98 µM); MIC (H. influenzae A-9833): 8 µg/mL (≈ 23.9 µM); MIC (H. influenzae A20178): 8 µg/mL (≈ 23.9 µM); MIC (H. influenzae A21518): 8 µg/mL (≈ 23.9 µM); MIC (H. influenzae A21522): 8 µg/mL (≈ 23.9 µM); MIC (B. fragilis A22696): 0.5 µg/mL (≈ 1.5 µM); ED50 (S. aureus A-9606): 0.11 mg/kg; ED50 (K. pneumoniae A-9664 [4]): 7.7 mg/kg; ED50 (P. rettgeri A15167-2): 5.7 mg/kg; ED50 (M. morganii A15149): 4.4 mg/kg; ED50 (S. marcescens A20335): 3.3 mg/kg; ED50 (P. aeruginosa A-9843a [5]): 0.8 mg/kg; ED50 (P. aeruginosa A20481): 0.8 mg/kg; ED50 (P. aeruginosa A20599): 3 mg/kg; AUC [6]: 6400 ng·h/mL; half-life [6]: 9 min; dose excreted at 3 h ([7]; 0-3 hours): 23.3%; dose excreted at 24 h ([7]; 0-24 hours): 24.2 ± 5.3%; dose excreted at 6 h ([7]; 3-6 hours): 0.5%; dose excreted at 24 h ([7]; 6-24 hours): 0.4%; half-life at 100 µM ([8]; pH 7.4, τ1/2 (half-life)): 810 min; NOAEL (in vivo): > 40 mg/kg; ED50 (E. cloacae A-9569): 0.4 mg/kg; ED50 (P. mirabilis A-9900 [9]): 19 mg/kg; LD50 [10]: > 40 mg/kg

Question: Which results are given for `C[C@@H](O)[C@H]1C(=O)N2C(C(=O)[O-])=C(SCC[n+]3cccc(N)c3)C[C@H]12` [Example 14, (5R, 6S)-3-[2-(3-aminopyridinio)ethylthio]-6-[1-(R)-hydroxyethyl]-7-oxo-1-azabicyclo[3.2.0]-hept-2-ene-2-carboxylate]?
Answer: MIC (S. pneumoniae A-9585; table 6): 2 ng/mL (≈ 0.00572 µM); MIC (S. pyogenes A-9604; table 6): 4 ng/mL (≈ 0.0114 µM); MIC (S. aureus A-9537; A9537, 50% serum, table 6): 0.016 µg/mL (≈ 0.0458 µM); MIC (S. aureus A-9537; A9537, overnight 37° C., table 6): 0.008 µg/mL (≈ 0.0229 µM); MIC ([2]; Pen-res, table 6): 0.008 µg/mL (≈ 0.0229 µM); MIC [11]: 8 ng/mL (≈ 0.0229 µM); MIC (S. faecalis A20688; A20688, overnight 37° C., table 6, read-out: MIC): 0.5 µg/mL (≈ 1.43 µM); MIC (K. pneumoniae A-9664 [12]): 0.06 µg/mL (≈ 0.172 µM); MIC (P. mirabilis A-9900 [13]): 0.03 µg/mL (≈ 0.0859 µM); MIC (P. vulgaris A21559; table 6): 0.016 µg/mL (≈ 0.0458 µM); MIC (S. marcescens A20019): 0.06 µg/mL (≈ 0.172 µM); MIC (P. aeruginosa A-9843A [3]; overnight 37° C., table 6, read-out: MIC): 2 µg/mL (≈ 5.72 µM); MIC (P. aeruginosa A21213): 1 µg/mL (≈ 2.86 µM); MIC (M. morganii A15153): 0.03 µg/mL (≈ 0.0859 µM); ED50 (P. mirabilis A9900): 5.4 mg/kg; ED50 (P. aeruginosa A9843A): 0.78 mg/kg; half-life ([8]; pH 7.4, t1/2 (half-life)): 1110 min
